# Experimental data from patent publication US20160084824A1, “DRUG DISCOVERY METHODS INVOLVING A PRECLNICAL, IN VITRO ISOLATED GASTROINTESTINAL EPITHELIAL STEM CELL-LIKE PROGENITOR CELL SYSTEM” (AlfaGene Bioscience, Inc., priority 2008, published 2016).
# Key:
# [1] = cited from earlier work
# [2] = test system: HIPEC monolayer derived from small intestinal segment (A2J1)
# [3] = test system: HGISC-derived primary epithelial cell line SOJ2; assay: Cellular toxicity of SN-38, MTT viability assay, SOJ2; format: cell-based, human; conditions: SOJ2 cells; increasing amounts of SN-38
# Protocol: (§1) Briefly, HGISC-derived primary epithelial cell lines (A2J1 and SOJ2) and the malignant colonic adenocarcinoma cell line (HT29) were cultured, as described above in Examples 1A and 1B in medium containing different cytotoxic levels of the irinotecan metabolite 7-ethyl-10-hydroxy-20(S)-camptothecin (SN-38). […] Each cell culture was assessed for viability utilizing the MIT assay.
# (§2) Yellow MTT (3-(4,5-Dimethylthiazol-2-yl)-2,5-diphenyltetrazolium bromide, a tetrazole) is reduced to purple formazan in living cells. A solubilization solution (usually either dimethyl sulfoxide, an acidified ethanol solution, or a solution of the detergent sodium dodecyl sulfate in diluted hydrochloric acid) is added to dissolve the insoluble purple formazan product into a colored solution. The absorbance of this colored solution may be quantified by measuring at a certain wavelength (usually between 500 and 600 nm) using a spectrophotometer. The absorption maximum is dependent on the solvent employed. The MTT assay may be used to determine cytotoxicity of materials, since those materials that result in cell toxicity, and therefore metabolic dysfunction, yield decreased performance in the assay.
# [4] = test system: HGISC-derived primary epithelial cell line A2J1; assay: Cellular toxicity of SN-38, MTT viability assay, A2J1; format: cell-based, human; conditions: A2J1 cells; increasing amounts of SN-38
# Protocol: as §1, §2
# [5] = test system: malignant colonic adenocarcinoma cell line (HT29); assay: Cellular toxicity of SN-38, MTT viability assay, HT29; format: cell-based, human; conditions: HT29 cells; increasing amounts of SN-38
# Protocol: as §1, §2
# [6] = test system: IL-8 production by HIPEC cells; assay: IL-8 production by HIPECs, ELISA; format: cell-based, human; conditions: for IL-8 production: 5-ASA 1-10 μg/ml in culture medium
# Protocol: Human gastrointestinal epithelial stem cell-like progenitor cells were isolated from a normal segment of the large intestine and a segment of the large intestine in a diseased state (such as a segment having ulcerative colitis). Epithelial monolayers were grown from these progenitor crypt cells on the appropriate BSME as described above. The effects of 5-ASA on spontaneous, LPS, or IFN-γ stimulated IL-8 production were assessed on HIPEC cells cultured in the presence or absence of either LPS or IFN-γ and 5-ASA (1-10 μg/ml). The level of IL-8 production was measured by ELISA.
compound,measurement,setting,value
CC(C)NCC(O)COc1cccc2ccccc12 (stereo not drawn) [propranolol],absorption,[1]; administered in vivo,absorbed rapidly and completely
same,bioavailability,[1]; due to extensive first-pass metabolism,variable bioavailability
same,permeability through small intestine (A2J1) compared with large intestine (5A),[2],greater than through large intestine (5A)
"CCc1c2c(nc3ccc(O)cc13)-c1cc3c(c(=O)n1C2)COC(=O)[C@]3(O)CC [SN-38, 7-ethyl-10-hydroxy-20(S)-camptothecin]",percent viability (MTT),[3],above 50%
same,percent viability (MTT),[4],0%
same,percent viability (MTT),[5],unaffected
IFN-γ: cytokine produced predominantly by natural killer T cells as part of the innate immune response,effect of stimulation on spontaneous IL-8 production,[6]; HIPECs from normal controls and from patients with IBS,moderately enhanced
"Nc1ccc(O)c(C(=O)O)c1 [5-ASA, 5-aminosalicyclic acid]",IL-8 production,[6]; IBS HIPECs,suppressed
same,IL-8 production,[6]; normal HIPECs,suppressed
